Results from ChEMBL document CHEMBL1151969, “Melanin synthesis inhibitors from Lespedeza floribunda” (J Nat Prod, 2009).

Assays:
[1] = Inhibition of melanin synthesis in NHEM cells assessed as [14C]thiouracil incorporation after 72 hrs by liquid scintillation counting; format: functional, cell-based, Homo sapiens
[2] = Cytotoxicity against NHEM cells assessed as cell viability after 72 hrs by WST-8 assay; format: cell-based; settings: human

SMILES | IC50 ([1]; Homo sapiens, NHEM, 72 h) [µM] | Activity [2] | IC50 ([1]; nhem) [µM]
CC(C)=CCc1cc2c(cc1O)OC[C@H]1c3cc(C)c(O)c(CC=C(C)C)c3O[C@@H]21 [LESPEFLORIN G4] | 3.24 | Non-toxic | 
CC(C)=CCc1cc([C@@H]2CC(=O)c3c(O)c(CC=C(C)C)c(O)c(CC=C(C)C)c3O2)c(O)cc1O [LESPEDEZAFLAVANONE H] | 7.8 |  | 
COc1ccc(C[C@H](O)C(=O)c2cc(CC=C(C)C)c(O)cc2OC)cc1 [LESPEFLORIN C4] | > 135 | Non-toxic | 
COc1c(O)cc2c(c1CC=C(C)C)O[C@H]1c3cc(CC=C(C)C)c(O)cc3OC[C@@H]21 [LESPEFLORIN G2] | 2.07 | Non-toxic | 
COc1cc(O)ccc1[C@@H]1CC(=O)c2c(O)cc3c(c2O1)C=CC(C)(C)O3 [LESPEFLORIN A4] | 4.93 | Non-toxic | 
COc1cc2c(CO)c(-c3ccc(O)cc3O)oc2c(CC=C(C)C)c1O [LESPEFLORIN F2] | 8.27 | Non-toxic | 
COc1ccc2c(c1)OC[C@H]1c3cc(OC)c(O)c(CC=C(C)C)c3O[C@@H]21 [LESPEFLORIN G9] | 8.38 | Non-toxic | 
CC(C)=CCc1cc(C(=O)[C@@H](O)Cc2ccc(O)cc2)c(O)c(C)c1O [LESPEFLORIN C5] | > 135 | Non-toxic | 
CC(C)=CCc1cc2c(cc1O)OC[C@H]1c3ccc(O)c(CC=C(C)C)c3O[C@@H]21 [ERYBRAEDIN C] | 2 | Non-toxic | 
COc1c(C)cc2c(c1CC=C(C)C)O[C@H]1c3ccc(O)cc3OC[C@@H]21 [LESPEFLORIN G6] | 6.16 | Non-toxic | 
COc1ccc(C[C@H](O)C(=O)c2cc(CC=C(C)C)c(O)cc2O)cc1 [LESPEFLORIN C2] | 28.1 | Non-toxic | 
CC(C)=CCc1cc2c(c(CC=C(C)C)c1O)O[C@H](c1ccc3c(c1)C=CC(C)(C)O3)CC2=O [LESPEFLORIN A3] | 1.5 | Non-toxic | 
COc1c(O)ccc(-c2cc3ccc(O)c(OC)c3o2)c1OC [LESPEFLORIN F1] | 10.8 | Non-toxic | 
CC(C)=CCc1cc([C@@H]2CC(=O)c3c(O)c(CC=C(C)C)c(O)c(CC=C(C)C)c3O2)ccc1O [AMORILIN] | 1.21 |  | 
CC(C)=CCc1cc(-c2oc3c(CC=C(C)C)c(O)c(O)cc3c2C(=O)c2cc3c(c(CC=C(C)C)c2O)O[C@H]2c4cc(CC=C(C)C)c(O)cc4OC[C@@H]32)c(O)cc1O [LESPEFLORIN J3] | 37.7 | Non-toxic | 
CC(C)=CCc1cc([C@@H]2CC(=O)c3c(O)c(CC=C(C)C)c(O)c(CC=C(C)C)c3O2)cc(O)c1O [AMORISIN] | 3.6 |  | 
CC(C)=CCc1cc([C@H]2Oc3c(CC=C(C)C)c(O)c(CC=C(C)C)c(O)c3C(=O)[C@@H]2O)ccc1O [LESPEFLORIN B4] | 1.23 | Non-toxic | 
CC(C)=CCc1cc2c(c(CC=C(C)C)c1O)O[C@H](c1ccc(O)cc1)[C@@H](O)C2=O [LESPEFLORIN B2] | 2.19 | Non-toxic | 
COc1cc2c(cc1C(=O)[C@@H](O)Cc1ccc(O)cc1)C=CC(C)(C)O2 [LESPEFLORIN C7] | 3.78 | Non-toxic | 
COc1cc2c(cc1O)O[C@H]1c3ccc(O)c(CC=C(C)C)c3OC[C@@H]21 [LESPEFLORIN G1] | 3.73 | Non-toxic | 
COc1cc(O)c(CC=C(C)C)cc1C(=O)[C@@H](O)Cc1ccc(O)cc1 [LESPEFLORIN C3] | 1.68 | Non-toxic | 
COc1ccc2c(c1)oc(=O)c1c3cc(O)c(O)c(CC=C(C)C)c3oc21 [LESPEFLORIN I3] | 27.3 | Non-toxic | 
CC(C)=CCc1cc2c(cc1O)oc(=O)c1c3cc(O)c(O)cc3oc21 [LESPEFLORIN I1] | 3.21 | Non-toxic | 
COc1c(O)cc2c(c1CC=C(C)C)O[C@H]1c3c(cc(O)c(CC=C(C)C)c3OC)OC[C@@H]21 [LESPEFLORIN G3] | 2.03 | Non-toxic | 
CC(C)=CCc1c(O)c(C)cc2c1O[C@H]1c3ccc(O)c(CC=C(C)C)c3OC[C@@H]21 [LESPEFLORIN G5] | 1.52 | Non-toxic | 
OC[C@H]1O[C@@H](Oc2ccc(O)cc2)[C@H](O)[C@@H](O)[C@@H]1O [ARBUTIN] | 103 |  | 

SMILES | IC50 ([1]; Homo sapiens, NHEM, 72 h) [µM] | Activity [2] | IC50 ([1]; nhem) [µM]
COc1c(O)ccc2c1OCC(c1ccc(O)c(OC)c1OC)=C2 [LESPEFLORIN E1] | 4.29 | Non-toxic | 
CC(C)=CCc1cc2c(c(CC=C(C)C)c1O)O[C@H](c1ccc(O)cc1)CC2=O | 2.52 | Non-toxic | 
Oc1ccc(O)cc1 [HYDROQUINONE] | 2.2 |  | 
CC(C)=CCc1cc2c(cc1O)oc(=O)c1c3cc(O)c(O)c(CC=C(C)C)c3oc21 [LESPEFLORIN I2] | 28.3 | Non-toxic | 
CC(C)=CCc1cc2c(cc1O)O[C@H](c1ccc(O)cc1)CC2=O [BAVACHIN] | 2.7 | Non-toxic | 
CC(C)=CCc1cc([C@H]2Oc3c(cc(CC=C(C)C)c(O)c3CC=C(C)C)C(=O)[C@@H]2O)ccc1O [LESPEFLORIN B3] | 0.68 | Non-toxic | 
CC(C)=CCc1cc(C(=O)[C@@H](O)Cc2ccc(O)cc2)c(O)cc1O [LESPEFLORIN C1] | > 146 | Non-toxic | 
CC(C)=CCc1cc([C@H]2Oc3cc(O)c(CC=C(C)C)cc3C(=O)[C@@H]2O)ccc1O [LESPEFLORIN B1] | 2.87 | Non-toxic | 
COc1ccc2c(c1)OC[C@H]1c3cc(O)c4c(c3O[C@@H]21)C=CC(C)(C)O4 [LESPEFLORIN G12] | 8.34 | Non-toxic | 
CC(C)=CCc1cc(C(=O)[C@@H](O)Cc2ccc(O)cc2)c(O)c(CC=C(C)C)c1O [LESPEFLORIN C6] | 22 | Non-toxic | 
COc1ccc2c(c1)OCc1c-2oc2c3c(c(O)cc12)OC(C)(C)C=C3 [LESPEFLORIN H2] | 1.48 | Non-toxic | 
CC(C)=CCc1c(O)c2c(c3c1OC(C)(C)C=C3)O[C@H](c1ccc(O)cc1)CC2=O [CAJAFLAVANONE] | 8.41 | Non-toxic | 
COc1c([C@@H]2COc3c(ccc(O)c3CC=C(C)C)C2=O)ccc(O)c1CC=C(C)C [LESPEFLORIN D1] | 1.47 | Non-toxic | 
COc1ccc(-c2oc3c(CC=C(C)C)c(O)c(O)cc3c2C(=O)c2cc3c(c(CC=C(C)C)c2O)O[C@H]2c4ccc(O)c(CC=C(C)C)c4OC[C@@H]32)c(O)c1 [LESPEFLORIN J2] | > 52.8 | Non-toxic | 
CC(C)=CCc1cc([C@@H]2CC(=O)c3c(cc(O)c(CC=C(C)C)c3O)O2)ccc1O [MACARANGAFLAVANONE B] | 2.59 | Non-toxic | 
CC(C)=CCc1cc2c(cc1O)OC[C@H]1c3cc(O)c4c(c3O[C@@H]21)C=CC(C)(C)O4 [LESPEFLORIN G11] | 2.9 | Non-toxic | 
CC(C)=CCc1cc2c(cc1O)OC[C@H]1c3ccc4c(c3O[C@@H]21)C=CC(C)(C)O4 [FOLITENOL] | 1.84 | Non-toxic | 
COc1ccc2c(c1)OCc1c-2oc2c(CC=C(C)C)c(O)c(O)cc12 [LESPEFLORIN H1] | 27 | Non-toxic | 
CC(C)=CCc1c(O)ccc2c1OC[C@H]1c3ccc4c(c3O[C@@H]21)C=CC(C)(C)O4 [ERYBREADIN B] | 2.93 | Non-toxic | 
CC(C)=CCc1c(O)c(CC=C(C)C)c2c(c1O)C(=O)C[C@@H](c1cc3c(cc1O)OC(C)(C)C=C3)O2 (stereo in doubt; 45) [EUCHRENONE A3] | 1.51 | Non-toxic | 
COc1ccc([C@@H]2CC(=O)c3ccc(O)c(CC=C(C)C)c3O2)cc1 [LESPEFLORIN A2] | 3.86 | Non-toxic | 
O=c1c(-c2ccc(O)cc2)coc2cc(O)cc(O)c12 [GENISTEIN] | 29.2 | Non-toxic | 
CC(C)=CCc1c(O)ccc2c1O[C@H]1c3ccc(O)c(CC=C(C)C)c3OC[C@@H]21 [ERYBRAEDIN A] | 3.84 | Non-toxic | 
COc1ccc([C@@H]2CC(=O)c3cc(CC=C(C)C)c(O)c(CC=C(C)C)c3O2)cc1 [LESPEFLORIN A1] | 3.96 | Non-toxic | 
CC(C)=CCc1c(O)c(CC=C(C)C)c2c(c1O)C(=O)C[C@@H](c1cc3c(cc1O)OC(C)(C)C=C3)O2 (stereo in doubt) [EUCHRENONE A3] |  |  | 1.02
COc1cc2c(c(CC=C(C)C)c1O)O[C@H]1c3ccc(O)cc3OC[C@@H]21 [LESPEFLORIN G7] | 6.02 | Non-toxic | 
